Measurements taken from ChEMBL document CHEMBL1151601, “Probing the binding site of the penicillin side-chain based on the tipper-strominger hypothesis” (1993).
Values after ≈ are worked out from the molar mass of the structure shown.

Experiments:
Escherichia coli [1] = assay: Concentration required for 90 percent inhibition of [14C]- pen-G binding to Escherichia coli DCO PBP1b 90 KDa
Staphylococcus aureus [2] = assay: Concentration required for 90 percent inhibition of [14C]- pen-G binding to Staphylococcus aureus ATCC 25293 PBP3 75 KDa
Staphylococcus aureus [3] = assay: Concentration required for 90 percent inhibition of [14C]- pen-G binding to Staphylococcus aureus ATCC 25293 PBP2 80 KDa
Escherichia coli [4] = assay: Concentration required for 90 percent inhibition of [14C]- pen-G binding to Escherichia coli DCO PBP3 60 KDa
Escherichia coli [5] = assay: Tested for minimum inhibitory concentration against Escherichia coli DCO; assay type: functional
Staphylococcus aureus [6] = assay: Concentration required for 90 percent inhibition of [14C]- pen-G binding to Staphylococcus aureus ATCC 25293 PBP1 87 KDa
Escherichia coli [7] = assay: Concentration required for 90 percent inhibition of [14C]- pen-G binding to Escherichia coli DCO PBP4 49 KDa
Escherichia coli [8] = assay: Tested for minimum inhibitory concentration against Escherichia coli DC2; assay type: functional
Escherichia coli [9] = assay: Concentration required for 90 percent inhibition of [14C]- pen-G binding to Escherichia coli DCO PBP1a 90 KDa
Escherichia coli [10] = assay: Concentration required for 90 percent inhibition of [14C]- pen-G binding to Escherichia coli DCO PBP2 66 KDa
Staphylococcus aureus [11] = assay: Tested for minimum inhibitory concentration against Staphylococcus aureus ATCC 25293; assay type: functional
Escherichia coli [12] = assay: Concentration required for 90 percent inhibition of [14C]- pen-G binding to Escherichia coli DCO PBP5/6 40 KDa
Escherichia coli [13] = assay: Concentration required for 90 percent inhibition of [14C]- pen-G binding to Escherichia coli Penicillin-binding protein (DCO PBP1b 90 KDa)
Escherichia coli [14] = assay: Concentration required for 90 percent inhibition of [14C]- pen-G binding to Escherichia coli Penicillin-binding protein (DCO PBP4 49 KDa)
Escherichia coli [15] = assay: Concentration required for 90 percent inhibition of [14C]- pen-G binding to Escherichia coli Penicillin-binding protein (DCO PBP5/6 40 KDa)
Escherichia coli [16] = assay: Concentration required for 90 percent inhibition of [14C]- pen-G binding to Escherichia coli Penicillin-binding protein (DCO PBP3 60 KDa)
Staphylococcus aureus [17] = assay: Concentration required for 90 percent inhibition of [14C]- pen-G binding to Staphylococcus aureus ATCC 25293 PBP4 41 KDa
Escherichia coli [18] = assay: Concentration required for 90 percent inhibition of [14C]- pen-G binding to Escherichia coli Penicillin-binding protein (DCO PBP1a 90 KDa)
Staphylococcus aureus [19] = assay: Concentration required for 90 percent inhibition of [14C]- pen-G binding to Staphylococcus aureus Penicillin-binding protein (ATCC 25293 PBP1 87 KDa)
Staphylococcus aureus [20] = assay: Concentration required for 90 percent inhibition of [14C]- pen-G binding to Staphylococcus aureus Penicillin-binding protein (ATCC 25293 PBP2 80 KDa)
Escherichia coli [21] = assay: Concentration required for 90 percent inhibition of [14C]- pen-G binding to Escherichia coli Penicillin-binding protein (DCO PBP2 66 KDa)

Row | SMILES | Concentration (Escherichia coli [1]) | Concentration (Staphylococcus aureus [2]) | Concentration (Staphylococcus aureus [3]) | Concentration (Escherichia coli [4]) | MIC (Escherichia coli [5]) | Concentration (Staphylococcus aureus [6]) | Concentration (Escherichia coli [7]) | MIC (Escherichia coli [8]) | Concentration (Escherichia coli [9]) | Concentration (Escherichia coli [10]) | MIC (Staphylococcus aureus [11]) | Concentration (Escherichia coli [12]) | Concentration (Staphylococcus aureus [17]) | other results
1 | CC(=O)NCCCC[C@@H](C(=O)N[C@@H]1C(=O)N2[C@@H]1SC(C)(C)[C@@H]2C(=O)O)c1ccccc1 | > 100 µg/mL | > 100 µg/mL | > 100 µg/mL | 100 µg/mL | > 100 µg/mL | 100 µg/mL | 100 µg/mL | > 20 µg/mL | > 100 µg/mL | > 100 µg/mL | > 20 µg/mL | > 100 µg/mL | – | –
2 | CC1(C)SC2C(NC(=O)Cc3ccccc3)C(=O)N2[C@H]1C(=O)O (stereo partly drawn) | – | – | – | – | – | – | – | – | – | – | > 20 µg/mL | – | > 100 µg/mL | Concentration (Escherichia coli [13]): > 100 µg/mL; Concentration (Escherichia coli [14]): 100 µg/mL; Concentration (Escherichia coli [15]): > 100 µg/mL; Concentration (Escherichia coli [16]): 100 µg/mL; Concentration (Escherichia coli [18]): > 100 µg/mL; Concentration (Staphylococcus aureus [19]): 2 µg/mL; Concentration (Staphylococcus aureus [20]): > 100 µg/mL; Concentration (Escherichia coli [21]): > 100 µg/mL
3 | CC1(C)S[C@@H]2[C@H](NC(=O)Cc3ccccc3)C(=O)N2[C@H]1C(=O)O [PENICILLIN G] | 10 µg/mL | 0.1 µg/mL | 0.1 µg/mL | 2 µg/mL | 50 µg/mL (≈ 150 µM) | 0.1 µg/mL | 2 µg/mL | 12 µg/mL (≈ 35.9 µM) | > 100 µg/mL | 10 µg/mL | < 0.05 µg/mL | > 100 µg/mL | 10 µg/mL | –
4 | CC(=O)NCCCC[C@H](C(=O)N[C@@H]1C(=O)N2[C@@H]1SC(C)(C)[C@@H]2C(=O)O)c1ccccc1 | 100 µg/mL | > 100 µg/mL | 100 µg/mL | 30 µg/mL | > 100 µg/mL | 30 µg/mL | 30 µg/mL | > 100 µg/mL | 30 µg/mL | 30 µg/mL | 20 µg/mL (≈ 44.7 µM) | > 100 µg/mL | – | –
5 | CC1(C)S[C@@H]2[C@H](NC(=O)[C@H](CCCCN)c3ccccc3)C(=O)N2[C@H]1C(=O)O | 100 µg/mL | > 100 µg/mL | 100 µg/mL | 10 µg/mL | > 100 µg/mL | 100 µg/mL | 10 µg/mL | > 100 µg/mL | 30 µg/mL | 30 µg/mL | > 100 µg/mL | > 100 µg/mL | – | –

Continued, in another order:

Row | Concentration (Escherichia coli [1]) | Concentration (Staphylococcus aureus [2]) | Concentration (Staphylococcus aureus [3]) | Concentration (Escherichia coli [4]) | MIC (Escherichia coli [5]) | Concentration (Staphylococcus aureus [6]) | Concentration (Escherichia coli [7]) | MIC (Escherichia coli [8]) | Concentration (Escherichia coli [9]) | Concentration (Escherichia coli [10]) | MIC (Staphylococcus aureus [11]) | Concentration (Escherichia coli [12]) | Concentration (Staphylococcus aureus [17]) | SMILES | other results
6 | 10 µg/mL | 0.1 µg/mL | 2 µg/mL | 2 µg/mL | – | 0.1 µg/mL | 0.1 µg/mL | 0.4 µg/mL (≈ 1.14 µM) | 2 µg/mL | 0.5 µg/mL | 1.6 µg/mL (≈ 4.58 µM) | 100 µg/mL | > 100 µg/mL | CC1(C)S[C@@H]2[C@H](NC(=O)[C@H](N)c3ccccc3)C(=O)N2[C@H]1C(=O)O [AMPICILLIN] | –
7 | 100 µg/mL | > 100 µg/mL | 30 µg/mL | 100 µg/mL | 100 µg/mL (≈ 247 µM) | 30 µg/mL | 30 µg/mL | 5 µg/mL (≈ 12.3 µM) | 10 µg/mL | 30 µg/mL | 5 µg/mL (≈ 12.3 µM) | > 100 µg/mL | – | CC1(C)S[C@@H]2[C@H](NC(=O)[C@@H](CCCCN)c3ccccc3)C(=O)N2[C@H]1C(=O)O | –
